Results published in ChEMBL document CHEMBL4020788, “Synthesis, SAR and molecular docking studies of benzo[d]thiazole-hydrazones as potential antibacterial and antifungal agents” (2017).
Converted amounts (≈) assume the structure as drawn. The source made the active and inactive calls. The calls are words filed in the database; no cut-off is given here.

Assays:
Format in all cases: functional
Staphylococcus aureus [1] = test: Antibacterial activity against Staphylococcus aureus at 25 ug/ml after 24 hrs by agar well diffusion method; conditions: read-out: DIZ
Staphylococcus aureus [2] = test: Antibacterial activity against Staphylococcus aureus at 50 ug/ml after 24 hrs by agar well diffusion method; conditions: read-out: DIZ
Staphylococcus aureus [3] = test: Antibacterial activity against Staphylococcus aureus at 75 ug/ml after 24 hrs by agar well diffusion method; conditions: read-out: DIZ
Staphylococcus aureus [4] = test: Antibacterial activity against Staphylococcus aureus at 100 ug/ml after 24 hrs by agar well diffusion method; conditions: read-out: DIZ
Bacillus subtilis [5] = test: Antibacterial activity against Bacillus subtilis at 25 ug/ml after 24 hrs by agar well diffusion method; conditions: read-out: DIZ
Bacillus subtilis [6] = test: Antibacterial activity against Bacillus subtilis at 50 ug/ml after 24 hrs by agar well diffusion method; conditions: read-out: DIZ
Bacillus subtilis [7] = test: Antibacterial activity against Bacillus subtilis at 75 ug/ml after 24 hrs by agar well diffusion method; conditions: read-out: DIZ
Bacillus subtilis [8] = test: Antibacterial activity against Bacillus subtilis at 100 ug/ml after 24 hrs by agar well diffusion method; conditions: read-out: DIZ
Escherichia coli [9] = test: Antibacterial activity against Escherichia coli at 25 ug/ml after 24 hrs by agar well diffusion method; conditions: read-out: DIZ
Escherichia coli [10] = test: Antibacterial activity against Escherichia coli at 50 ug/ml after 24 hrs by agar well diffusion method; conditions: read-out: DIZ
Escherichia coli [11] = test: Antibacterial activity against Escherichia coli at 75 ug/ml after 24 hrs by agar well diffusion method; conditions: read-out: DIZ
Escherichia coli [12] = test: Antibacterial activity against Escherichia coli at 100 ug/ml after 24 hrs by agar well diffusion method; conditions: read-out: DIZ
Klebsiella pneumoniae [13] = test: Antibacterial activity against Klebsiella pneumoniae at 25 ug/ml after 24 hrs by agar well diffusion method; conditions: read-out: DIZ
Klebsiella pneumoniae [14] = test: Antibacterial activity against Klebsiella pneumoniae at 50 ug/ml after 24 hrs by agar well diffusion method; conditions: read-out: DIZ
Klebsiella pneumoniae [15] = test: Antibacterial activity against Klebsiella pneumoniae at 75 ug/ml after 24 hrs by agar well diffusion method; conditions: read-out: DIZ
Klebsiella pneumoniae [16] = test: Antibacterial activity against Klebsiella pneumoniae at 100 ug/ml after 24 hrs by agar well diffusion method; conditions: read-out: DIZ
Staphylococcus aureus [17] = test: Antibacterial activity against methicillin resistant Staphylococcus aureus MRSA090 at 25 ug/ml after 24 hrs by agar well diffusion method; conditions: MRSA090, 24 h, read-out: DIZ
Staphylococcus aureus [18] = test: Antibacterial activity against methicillin resistant Staphylococcus aureus MRSA090 at 50 ug/ml after 24 hrs by agar well diffusion method; conditions: MRSA090, 24 h, read-out: DIZ
Staphylococcus aureus [19] = test: Antibacterial activity against methicillin resistant Staphylococcus aureus MRSA090 at 75 ug/ml after 24 hrs by agar well diffusion method; conditions: MRSA090, 24 h, read-out: DIZ
Staphylococcus aureus [20] = test: Antibacterial activity against methicillin resistant Staphylococcus aureus MRSA090 at 100 ug/ml after 24 hrs by agar well diffusion method; conditions: MRSA090, 24 h, read-out: DIZ
Aspergillus niger [21] = test: Antifungal activity against Aspergillus niger at 25 ug/ml after 48 hrs by agar well diffusion method
Aspergillus niger [22] = test: Antifungal activity against Aspergillus niger at 50 ug/ml after 48 hrs by agar well diffusion method
Aspergillus niger [23] = test: Antifungal activity against Aspergillus niger at 75 ug/ml after 48 hrs by agar well diffusion method
Aspergillus niger [24] = test: Antifungal activity against Aspergillus niger at 100 ug/ml after 48 hrs by agar well diffusion method
Fusarium verticillioides [25] = test: Antifungal activity against Fusarium moniliforme at 25 ug/ml after 48 hrs by agar well diffusion method
Fusarium verticillioides [26] = test: Antifungal activity against Fusarium moniliforme at 50 ug/ml after 48 hrs by agar well diffusion method
Fusarium verticillioides [27] = test: Antifungal activity against Fusarium moniliforme at 75 ug/ml after 48 hrs by agar well diffusion method
Fusarium verticillioides [28] = test: Antifungal activity against Fusarium moniliforme at 100 ug/ml after 48 hrs by agar well diffusion method
Fusarium oxysporum [29] = test: Antifungal activity against Fusarium oxysporum at 25 ug/ml after 48 hrs by agar well diffusion method
Fusarium oxysporum [30] = test: Antifungal activity against Fusarium oxysporum at 50 ug/ml after 48 hrs by agar well diffusion method
Fusarium oxysporum [31] = test: Antifungal activity against Fusarium oxysporum at 75 ug/ml after 48 hrs by agar well diffusion method
Fusarium oxysporum [32] = test: Antifungal activity against Fusarium oxysporum at 100 ug/ml after 48 hrs by agar well diffusion method
Staphylococcus aureus [33] = test: Antibacterial activity against Staphylococcus aureus incubated for overnight by microdilution method
Bacillus subtilis [34] = test: Antibacterial activity against Bacillus subtilis incubated for overnight by microdilution method
Escherichia coli [35] = test: Antibacterial activity against Escherichia coli incubated for overnight by microdilution method
Staphylococcus aureus [36] = test: Antibacterial activity against methicillin resistant Staphylococcus aureus MRSA090 incubated for overnight by microdilution method
Klebsiella pneumoniae [37] = test: Antibacterial activity against Klebsiella pneumoniae incubated for overnight by microdilution method

SMILES: COc1ccc(/C=N/Nc2nc3cccc(C)c3s2)cc1
- zone of inhibition at 25 µg/mL (Staphylococcus aureus [1]): 12 mm
- zone of inhibition at 50 µg/mL (Staphylococcus aureus [2]): 14 mm
- zone of inhibition at 75 µg/mL (Staphylococcus aureus [3]): 19 mm
- zone of inhibition at 100 µg/mL (Staphylococcus aureus [4]): 24 mm
- zone of inhibition at 25 µg/mL (Bacillus subtilis [5]): 13 mm
- zone of inhibition at 50 µg/mL (Bacillus subtilis [6]): 18 mm
- zone of inhibition at 75 µg/mL (Bacillus subtilis [7]): 20 mm
- zone of inhibition at 100 µg/mL (Bacillus subtilis [8]): 26 mm
- zone of inhibition at 25 µg/mL (Escherichia coli [9]): 10 mm
- zone of inhibition at 50 µg/mL (Escherichia coli [10]): 12 mm
- zone of inhibition at 75 µg/mL (Escherichia coli [11]): 15 mm
- zone of inhibition at 100 µg/mL (Escherichia coli [12]): 10 mm
- zone of inhibition at 25 µg/mL (Klebsiella pneumoniae [13]): 14 mm
- zone of inhibition at 50 µg/mL (Klebsiella pneumoniae [14]): 16 mm
- zone of inhibition at 75 µg/mL (Klebsiella pneumoniae [15]): 20 mm
- zone of inhibition at 100 µg/mL (Klebsiella pneumoniae [16]): 22 mm
- zone of inhibition at 25 µg/mL (Staphylococcus aureus [17]): 10 mm
- zone of inhibition at 50 µg/mL (Staphylococcus aureus [18]): 13 mm
- zone of inhibition at 75 µg/mL (Staphylococcus aureus [19]): 16 mm
- zone of inhibition at 100 µg/mL (Staphylococcus aureus [20]): 21 mm
- zone of inhibition at 25 µg/mL (Aspergillus niger [21]; read-out: DIZ): 8 mm
- zone of inhibition at 50 µg/mL (Aspergillus niger [22]; read-out: DIZ): 11 mm
- zone of inhibition at 75 µg/mL (Aspergillus niger [23]; read-out: DIZ): 14 mm
- zone of inhibition at 100 µg/mL (Aspergillus niger [24]; read-out: DIZ): 16 mm
- diameter of the inhibition zone (DIZ) (Fusarium verticillioides [25]): inactive
- diameter of the inhibition zone (DIZ) (Fusarium verticillioides [26]): inactive
- diameter of the inhibition zone (DIZ) (Fusarium verticillioides [27]): inactive
- diameter of the inhibition zone (DIZ) (Fusarium verticillioides [28]): inactive
- diameter of the inhibition zone (DIZ) (Fusarium oxysporum [29]): inactive
- diameter of the inhibition zone (DIZ) (Fusarium oxysporum [30]): inactive
- diameter of the inhibition zone (DIZ) (Fusarium oxysporum [31]): inactive
- diameter of the inhibition zone (DIZ) (Fusarium oxysporum [32]): inactive
- MIC (Staphylococcus aureus [33]): 30 µg/mL (≈ 101 µM)
- MIC (Bacillus subtilis [34]): 28 µg/mL (≈ 94.2 µM)
- MIC (Escherichia coli [35]): 27 µg/mL (≈ 90.8 µM)
- MIC (Staphylococcus aureus [36]): 32 µg/mL (≈ 108 µM)

SMILES: O=C(N[C@H](CO)[C@H](O)c1ccc([N+](=O)[O-])cc1)C(Cl)Cl [CHLORAMPHENICOL]
- zone of inhibition at 25 µg/mL (Staphylococcus aureus [1]): 24 mm
- zone of inhibition at 50 µg/mL (Staphylococcus aureus [2]): 28 mm
- zone of inhibition at 75 µg/mL (Staphylococcus aureus [3]): 34 mm
- zone of inhibition at 100 µg/mL (Staphylococcus aureus [4]): 37 mm
- zone of inhibition at 25 µg/mL (Bacillus subtilis [5]): 21 mm
- zone of inhibition at 50 µg/mL (Bacillus subtilis [6]): 25 mm
- zone of inhibition at 75 µg/mL (Bacillus subtilis [7]): 31 mm
- zone of inhibition at 100 µg/mL (Bacillus subtilis [8]): 34 mm
- zone of inhibition at 25 µg/mL (Escherichia coli [9]): 23 mm
- zone of inhibition at 50 µg/mL (Escherichia coli [10]): 27 mm
- zone of inhibition at 75 µg/mL (Escherichia coli [11]): 32 mm
- zone of inhibition at 100 µg/mL (Escherichia coli [12]): 38 mm
- zone of inhibition at 25 µg/mL (Klebsiella pneumoniae [13]): 24 mm
- zone of inhibition at 50 µg/mL (Klebsiella pneumoniae [14]): 29 mm
- zone of inhibition at 75 µg/mL (Klebsiella pneumoniae [15]): 33 mm
- zone of inhibition at 100 µg/mL (Klebsiella pneumoniae [16]): 36 mm
- zone of inhibition at 25 µg/mL (Staphylococcus aureus [17]): 19 mm
- zone of inhibition at 50 µg/mL (Staphylococcus aureus [18]): 22 mm
- zone of inhibition at 75 µg/mL (Staphylococcus aureus [19]): 27 mm
- zone of inhibition at 100 µg/mL (Staphylococcus aureus [20]): 31 mm
- MIC (Klebsiella pneumoniae [37]): 28 µg/mL (≈ 86.7 µM)
- MIC (Staphylococcus aureus [33]): 27 µg/mL (≈ 83.6 µM)
- MIC (Bacillus subtilis [34]): 27 µg/mL (≈ 83.6 µM)
- MIC (Escherichia coli [35]): 25 µg/mL (≈ 77.4 µM)
- MIC (Staphylococcus aureus [36]): 25 µg/mL (≈ 77.4 µM)

SMILES: Cc1cccc2nc(N/N=C/c3ccc(O)cc3)sc12
- zone of inhibition at 25 µg/mL (Staphylococcus aureus [1]): 10 mm
- zone of inhibition at 50 µg/mL (Staphylococcus aureus [2]): 16 mm
- zone of inhibition at 75 µg/mL (Staphylococcus aureus [3]): 20 mm
- zone of inhibition at 100 µg/mL (Staphylococcus aureus [4]): 23 mm
- zone of inhibition at 25 µg/mL (Bacillus subtilis [5]): 11 mm
- zone of inhibition at 50 µg/mL (Bacillus subtilis [6]): 14 mm
- zone of inhibition at 75 µg/mL (Bacillus subtilis [7]): 18 mm
- zone of inhibition at 100 µg/mL (Bacillus subtilis [8]): 21 mm
- zone of inhibition at 25 µg/mL (Escherichia coli [9]): 17 mm
- zone of inhibition at 50 µg/mL (Escherichia coli [10]): 19 mm
- zone of inhibition at 75 µg/mL (Escherichia coli [11]): 22 mm
- zone of inhibition at 100 µg/mL (Escherichia coli [12]): 25 mm
- zone of inhibition at 25 µg/mL (Klebsiella pneumoniae [13]): 14 mm
- zone of inhibition at 50 µg/mL (Klebsiella pneumoniae [14]): 17 mm
- zone of inhibition at 75 µg/mL (Klebsiella pneumoniae [15]): 22 mm
- zone of inhibition at 100 µg/mL (Klebsiella pneumoniae [16]): 26 mm
- zone of inhibition at 25 µg/mL (Staphylococcus aureus [17]): 14 mm
- zone of inhibition at 50 µg/mL (Staphylococcus aureus [18]): 17 mm
- zone of inhibition at 75 µg/mL (Staphylococcus aureus [19]): 21 mm
- zone of inhibition at 100 µg/mL (Staphylococcus aureus [20]): 24 mm
- diameter of the inhibition zone (DIZ) (Aspergillus niger [21]): inactive
- diameter of the inhibition zone (DIZ) (Aspergillus niger [22]): inactive
- diameter of the inhibition zone (DIZ) (Aspergillus niger [23]): inactive
- diameter of the inhibition zone (DIZ) (Aspergillus niger [24]): inactive
- zone of inhibition at 25 µg/mL (Fusarium verticillioides [25]; read-out: DIZ): 8 mm
- zone of inhibition at 50 µg/mL (Fusarium verticillioides [26]; read-out: DIZ): 10 mm
- zone of inhibition at 75 µg/mL (Fusarium verticillioides [27]; read-out: DIZ): 13 mm
- zone of inhibition at 100 µg/mL (Fusarium verticillioides [28]; read-out: DIZ): 17 mm
- diameter of the inhibition zone (DIZ) (Fusarium oxysporum [29]): inactive
- diameter of the inhibition zone (DIZ) (Fusarium oxysporum [30]): inactive
- diameter of the inhibition zone (DIZ) (Fusarium oxysporum [31]): inactive
- diameter of the inhibition zone (DIZ) (Fusarium oxysporum [32]): inactive
- MIC (Staphylococcus aureus [33]): 28 µg/mL (≈ 98.8 µM)
- MIC (Bacillus subtilis [34]): 26 µg/mL (≈ 91.8 µM)
- MIC (Escherichia coli [35]): 25 µg/mL (≈ 88.2 µM)
- MIC (Staphylococcus aureus [36]): 30 µg/mL (≈ 106 µM)
